For one assay, the system named is V79. The assay can be described thus: Mammalian cell cytotoxicity test in chinese hamster V79 cells (clonogenic cytotoxicity). The class given is functional, cell-based.
The nature of assay [1]: Antibacterial activity against five Gram-negative bacteria. The assay is classed as functional.
Where [2] appears, read: Cricetulus griseus, V79, read-out: IC50.

The IC50 is the concentration that inhibits the measured activity by half. One may read the MIC as the smallest concentration in the dilution series that meets the test's criterion for growth inhibition.

SMILES strings stand for the structures. ≈ marks a conversion by molar mass, not a printed value.

For the compound `CC1CN(c2c(F)cc3c(=O)c(C(=O)O)cn(C4CC4)c3c2C(F)(F)F)CC(C)N1` (configuration not stated), in the assay with V79 (setting [2]), the IC50 is more than 500 mg/L. Further, the MIC in assay [1] (read-out: MIC) was determined as 0.91 mg/L (≈ 2.13 µM).

Consider `NC1CCN(c2c(F)c(F)c3c(=O)c(C(=O)O)cn(C4CC4)c3c2C(F)(F)F)C1` (configuration not stated), for which, in the assay with V79 (setting [2]), the IC50 was 190 mg/L (≈ 455 µM). Further, the minimum inhibitory concentration (MIC) in assay [1] (read-out: MIC) is 25 mg/L (≈ 59.9 µM).

In the case of `NC1CCN(c2c(F)c(O)c3c(=O)c(C(=O)O)cn(C4CC4)c3c2F)C1` (configuration not stated), the IC50 with V79 (setting [2]) stood at 43 mg/L (≈ 118 µM). Further, the MIC in assay [1] (read-out: MIC) turned out to be 0.03 mg/L (≈ 0.0821 µM).

For `O=C(O)c1cn(-c2ccc(F)cc2F)c2cc(N3CCNCC3)c(F)cc2c1=O`, the IC50 in the assay with V79 (setting [2]) is more than 500 mg/L. The minimal inhibitory concentration (MIC) in assay [1] (read-out: MIC) turned out to be 0.11 mg/L (≈ 0.273 µM).

Take `COc1c(N2CCC(C)(N)C2)c(F)cc2c(=O)c(C(=O)O)cn(C3CC3)c12` (configuration not stated): the IC50 with V79 (setting [2]) worked out at 38 mg/L (≈ 101 µM). The MIC in assay [1] (read-out: MIC) was determined as 0.26 mg/L (≈ 0.693 µM).

On to `CCNCC1CCN(c2c(F)cc3c(=O)c(C(=O)O)cn(CCO)c3c2F)C1` (configuration not stated), for which the IC50 in the assay with V79 (setting [2]) is more than 500 mg/L. For the same compound, the MIC in assay [1] (read-out: MIC) turned out to be 50 mg/L (≈ 126 µM).

On to `NC1CCN(c2c(F)cc3c(=O)c(C(=O)O)cn(C4CC4)c3c2C(F)(F)F)C1` (stereo in doubt; 24e), for which, in the assay with V79 (v79), the IC50 worked out at 300 mg/L (≈ 751 µM). Also, the MIC in assay [1] was 0.2 mg/L (≈ 0.501 µM).

Regarding `NC1CCCN(c2c(F)cc3c(=O)c(C(=O)O)cn(C4CC4)c3c2F)C1` (configuration not stated), the IC50 in the assay on V79 (setting [2]) was determined as 53 mg/L (≈ 146 µM). In assay [1] (read-out: MIC), the MIC turned out to be 0.13 mg/L (≈ 0.358 µM).

With `CC1CN(c2nc3c(cc2F)c(=O)c(C(=O)O)cn3C2CC2)CC(C)N1` (configuration not stated), the concentration for half-maximal inhibition (IC50) in the assay with V79 (setting [2]) came to 250 mg/L (≈ 694 µM). Also, the minimum inhibitory concentration (MIC) in assay [1] (read-out: MIC) was found to be 0.17 mg/L (≈ 0.472 µM).

On to `CC1(CN)CCN(c2c(F)cc3c(=O)c(C(=O)O)cn(C4CC4)c3c2F)C1` (configuration not stated), for which the half-maximal inhibitory concentration (IC50) with V79 (setting [2]) is 8 mg/L (≈ 21.2 µM). In assay [1] (read-out: MIC), the MIC stood at 0.13 mg/L (≈ 0.344 µM).

Turning to `CCNCC1CCN(c2cc3c(c(C)c2F)c(=O)c(C(=O)O)cn3C2CC2)C1` (configuration not stated), the half-maximal inhibitory concentration (IC50) in the assay on V79 (setting [2]) turned out to be 42 mg/L (≈ 108 µM). In assay [1] (read-out: MIC), the minimal inhibitory concentration (MIC) came out at 0.6 mg/L (≈ 1.55 µM).

On to `CNCC1(C)CCN(c2c(F)cc3c(=O)c(C(=O)O)cn(C4CC4)c3c2OC)C1` (configuration not stated), for which the IC50 with V79 (setting [2]) came out at 120 mg/L (≈ 297 µM). Further, the minimum inhibitory concentration (MIC) in assay [1] (read-out: MIC) was 0.52 mg/L (≈ 1.29 µM).

Consider `NC1CCN(c2nc3c(cc2F)c(=O)c(C(=O)O)cn3-c2ccc(F)cc2F)C1` (configuration not stated) [TOSUFLOXACIN], for which the concentration for half-maximal inhibition (IC50) with V79 (setting [2]) was 128 mg/L (≈ 317 µM). Besides, the MIC in assay [1] (read-out: MIC) is 0.09 mg/L (≈ 0.223 µM).

As to `NC1CCN(c2c(F)cc3c(=O)c(C(=O)O)cn(C4CC4)c3c2F)C1` (stereo in doubt; 21), the half-maximal inhibitory concentration (IC50) with V79 (setting [2]) came to 30 mg/L (≈ 85.9 µM). Further, in assay [1] (read-out: MIC), the MIC is 0.04 mg/L (≈ 0.115 µM).

Turning to `NC1CCN(c2c(F)c(F)c3c(=O)c(C(=O)O)cn(C4CC4)c3c2F)C1` (configuration not stated), the IC50 with V79 (setting [2]) came to 100 mg/L (≈ 272 µM). Moreover, the MIC in assay [1] (read-out: MIC) amounted to 0.08 mg/L (≈ 0.218 µM).

As to `NC1CCN(c2c(F)c(Cl)c3c(=O)c(C(=O)O)cn(C4CC4)c3c2Cl)C1` (configuration not stated), the half-inhibitory concentration (IC50) in the assay on V79 (setting [2]) is more than 500 mg/L. Further, the minimal inhibitory concentration (MIC) in assay [1] (read-out: MIC) was 0.13 mg/L (≈ 0.325 µM).

Turning to `CCNCC1CCN(c2c(F)cc3c(=O)c(C(=O)O)cn(C4CC4)c3c2Cl)C1` (stereo in doubt; 37a), the 50% inhibitory concentration (IC50) in the assay on V79 (setting [2]) is less than 11 mg/L.

Compound `NC1CCN(c2c(F)cc3c(=O)c(C(=O)O)cn(C4CC4)c3c2Cl)C1` (stereo in doubt; 33a) [CLINAFLOXACIN] showed an IC50 in the assay with V79 (v79) of 26 mg/L (≈ 71.1 µM).

In assay [1], `CCNCC1CCN(c2c(F)cc3c(=O)c(C(=O)O)cn(C4CC4)c3c2Cl)C1` (stereo in doubt; 69) displayed a minimum inhibitory concentration (MIC) of 0.14 mg/L (≈ 0.343 µM).

In the assay with V79 (v79), `CCNCC1CCN(c2cc3c(cc2F)c(=O)c(C(=O)O)cn3C2CC2)C1` (stereo in doubt; 66) gave a 50% inhibitory concentration (IC50) of 160 mg/L (≈ 428 µM).

Take `CCNCC1CCN(c2cc3c(cc2F)c(=O)c(C(=O)O)cn3C2CC2)C1` (stereo in doubt; 16): the MIC in assay [1] was 0.46 mg/L (≈ 1.23 µM).

Take `COc1c(N2CCC(N)C2)c(F)cc2c(=O)c(C(=O)O)cn(C3CC3)c12` (stereo in doubt; 35a): in the assay on V79 (setting [2]), the IC50 was determined as 45 mg/L (≈ 125 µM).

As to `CCn1cc(C(=O)O)c(=O)c2cc(F)c(N3CCN(C)CC3)cc21` [PEFLOXACIN], the MIC in assay [1] (read-out: MIC) is 0.07 mg/L (≈ 0.21 µM).

`CCNCC1CCN(c2c(F)cc3c(=O)c(C(=O)O)cn(C4CC4)c3c2F)C1` (stereo in doubt; 7) [PD-117558] came in with a minimal inhibitory concentration (MIC) in assay [1] of 0.09 mg/L (≈ 0.23 µM).

As for `CCNCC1CCN(c2c(F)cc3c(=O)c(C(=O)O)cn(C4CC4)c3c2F)C1` (stereo in doubt; 26b) [PD-117558], the half-inhibitory concentration (IC50) with V79 (v79) turned out to be 11 mg/L (≈ 28.1 µM).

In the assay with V79 (v79), `NC1CCN(c2c(F)cc3c(=O)c(C(=O)O)cn(C4CC4)c3c2F)C1` (stereo in doubt; 43) registered an IC50 of 30 mg/L (≈ 85.9 µM).
